{"source": "patent US20070078262A1", "about": "“Thiomorpholino steroid compounds, the use thereof for the preparation of meiosis-regulating medicaments and method for the preparation thereof” (SCHERING AKTIENGESELLSCHAFT, priority 2003, published 2007)", "key": {"[1]": {"test_system": "Cumulus Enclosed Oocytes (CEOs)", "assay": "Cumulus enclosed oocyte assay (meiosis activation in Hx-medium)", "assay_type": "cell-based, mice (C57BL/6J×DBA/2J F1)", "description": "Activation of MI arrested oocytes can be assessed by the disappearance of the germinal vesicle (GV). The disappearance of the GV, called germinal vesicle breakdown (GVB) is followed by the extrusion of the first polar body (PB) (C. Grøndahl, J. L. Ottesen, M. Lessi, P. Faarup, A. Murray, F C Grønvald, C. Hegele-Hartung, I. Ahnfelt-Rønne, “Meiosis-activating sterol promotes resumption of meiosis in mouse oocytes cultured in vitro in contrast to related oxysterols”, Biol. Reprod., 58, 1297-1302 (1998); C. Hegele-Hartung, J. Kuhnke, M. Lessi, C. Grøndahl, J. Ottesen, H. M. Beier, S. Eisner, U. Eichenlaub-Ritter, “Nuclear and cytoplasmic maturation of mouse oocytes after treatment with synthetic meiosis-activating sterol in vitro”, Biol. Reprod., 61, 1362-1372 (1999)).\nCumulus Enclosed Oocytes (CEOs) were obtained from immature female mice (C57BL/6J×DBA/2J F1) weighing 13-16 grams, that were kept under controlled temperature (20-22° C.), light (lights on 06:00-18:00) and relative humidity (50-70%). The mice received an intra-peritoneal injection of 0.2 ml gonadotropins containing 20 IU FSH. 48 hours later the animals were killed by cervical dislocation. The ovaries were dissected out and the oocytes were isolated in Hx-medium (see below) under a stereomicroscope by manual rupture of the follicles using a pair of 27-gauge needles. Cumulus enclosed oocytes displaying an intact germinal vesicle were placed in α-minimum essential medium (α-MEM without ribonucleosides supplemented with 8 mg/ml Human Serum Albumin (HSA), 0.23 mM pyruvate, 2 mM glutamine, 100 IU/ml penicillin and 100 μg/ml streptomycin). To maintain the oocytes in the germinal vesicle stage this medium was supplemented with 3 mM hypoxanthine, designated as Hx-medium.\nThe CEOs (35-45 CEOs in 0.4 ml Hx-medium) were cultured in a humidified atmosphere of 5% CO2 in air for 24 hours at 37° C. One control well (identical medium with no addition of test compound) was always cultured simultaneously with test wells.\nBy the end of the culture period the number of CEOs with germical vesicle (GV), germinal vesicle breakdown (GVB) and polar bodies (PB), respectively, were counted. The % GVB, defined as the percentage of CEOs undergoing GVB per total number of CEOs in that well, was calculated as: % GVB=(number of GVB+number of PB/total number of CEOs)×100\nThe % PB was defined as the percentage of CEOs displaying one extruded polar body per total number of CEOs in that well.\nFor each compound two experiments were performed and the results compared to Hx-medium as a control and FF-MAS at a concentration of 10 μM."}, "[2]": {"test_system": "in vitro fertilized ova (2-cell embryos)", "assay": "Retransfer study / fertility trial (in vitro fertilized 2-cell embryos transferred into foster mothers)", "assay_type": "in vivo, mice", "settings": "for No. of Implantation Spots: Odds / No. of Viable Fetuses: Odds: successes divided by failures; for No. of Implantation Spots: Failures: transferred ova minus implantation spots; for No. of Viable Fetuses: Failures: transferred ova minus viable fetuses; for Odds Ratio for comparison to FF-MAS, No. of Implantation Spots / Odds Ratio for comparison to FF-MAS, No. of Viable Fetuses: versus FF-MAS 10 μM", "protocol": "In vitro fertilization was performed as described above for the IVF experiment.\nOne day before the retransfer female recipient mice (foster mothers) in pro-estrus cycle state were mated with vasectomized males in order to trigger pseudogestation. One day later a vaginal check was performed. Animals with a positive, sperm-free vaginal plug (successful mating) entered the study. This day was designated day 0 of gestation (=day 0 after the sterile copulation, day 0 p.c.). […] 2-cell embryos were transferred into the right tube of the foster mothers on day 0 after the sterile copulation under anesthesia. The contra-lateral tube remained unused (check for pseudogestation). The foster mothers were sacrified on day 19 of gestation. The fetuses were removed and examined. The ovaries and uteri were removed immediately to record the number of implantation sites, viable and dead fetuses and resorptions. Apparently non-pregnant uteri were placed in a 10% aqueous solution of ammonium sulfide for about 10 min to stain possible implantation sites in the endometrium. The viable fetuses were individually weighed and their sex determined by inspection of their gonads.\nIn a fertility trial 269 mice were randomized into 6 groups and implanted with 7-10 in vitro fertilized ova. The in vitro fertilization took place in the presence of vehicle (group 1) or of a substance (groups 2 to 6).\nThe fertility raising effect of the substances in comparison to the vehicle control was of main interest. Moreover, an improvement compared to the substance FF-MAS was also investigated.\nVariables of primary interest are the number of implantation spots and the number of viable fetuses.\nThe data for implantation spots as well as for viable fetuses have to be considered to have binary character, i.e. it can be expressed in rates or in a number of successes and failures with respect to the number of transferred ova. Therefore, methods as outlined by D. Collett: “Modelling Binary Data”, 2nd edition, Chapman & Hall/CRC, Boca Raton, constitute appropriate approaches to the data analysis.\nThe odds ratio of one group as compared to the other is defined as: odds ratio (group 1, group 2)=or1,2=odds (group 1)/odds (group 2)\nwhere the odds of a group can be estimated by the number of successes divided by the number of failures in that group.\nTo reach statements about the significance of any findings, 95% confidence-intervals for the odds ratios are computed as: [ exp(log(or1,2)[…]1.96·se(log(or1,2))); exp(log(or1,2)+1.96·se(log(or1,2)))]\nwherein se(log(or1,2)) is the standard error of the log odds ratio (see D. Collett (2003) for the corresponding formula).\nAs a basis for the computation of odds ratios, the number of successes (i.e., the number of implantation spots of number of viable fetuses) and failures (i.e., the number of transferred ova minus the number of implantation spots or number of viable fetuses) are computed for all groups."}, "[3]": {"assay": "physchem", "settings": "water"}}, "data": [{"smiles": "C[C@H](CN1CCSCC1)[C@H]1CC=C2C3=C(CC[C@@]21C)[C@@]1(C)CC[C@H](O)C(C)(C)[C@@H]1CC3", "note": "[Compound IA, (20S)-20-[(thiomorpholin-4-yl)methyl]-4,4-dimethyl-5α-pregna-8,14-dien-3β-ol]", "values": [{"measurement": "efficiency of meiosis activation among the compounds tested", "setting": "[1]; CEOs in the presence of Hx", "value": "the most efficient compound tested"}, {"measurement": "meiosis activation in CEOs monitored by GVB and PB (FIG. 2)", "setting": "[1]; at 1 μM (p<0.01; n=10), 3 μM (p<0.05; n=7) and 10 μM (p<0.001; n=6)", "value": "significantly improved meiosis activation"}, {"measurement": "No. of Implantation Spots: Success", "setting": "[2]; 1 μM", "value": 120}, {"measurement": "No. of Viable Fetuses: Success", "setting": "[2]; 1 μM", "value": 51}, {"measurement": "Odds Ratio for comparison to vehicle control, No. of Implantation Spots", "setting": "[2]; 1 μM", "value": 1.51}, {"measurement": "Odds Ratio for comparison to vehicle control, No. of Viable Fetuses", "setting": "[2]; 1 μM", "value": 1.70}, {"measurement": "increase of the odds of a successful implantation versus vehicle control", "setting": "[2]; 1 μM", "value": 51, "unit": "%"}, {"measurement": "No. of Implantation Spots: Odds", "setting": "[2]; 1 μM", "value": 0.38}, {"measurement": "No. of Viable Fetuses: Odds", "setting": "[2]; 1 μM", "value": 0.13}, {"measurement": "No. of Implantation Spots: Failures", "setting": "[2]; 1 μM", "value": 317}, {"measurement": "No. of Viable Fetuses: Failures", "setting": "[2]; 1 μM", "value": 386}, {"measurement": "Odds Ratio for comparison to FF-MAS, No. of Implantation Spots", "setting": "[2]; 1 μM", "value": 1.27}, {"measurement": "Odds Ratio for comparison to FF-MAS, No. of Viable Fetuses", "setting": "[2]; 1 μM", "value": 1.15}, {"measurement": "No. of Implantation Spots: Success", "setting": "[2]; 10 μM", "value": 123}, {"measurement": "No. of Viable Fetuses: Success", "setting": "[2]; 10 μM", "value": 40}, {"measurement": "Odds Ratio for comparison to vehicle control, No. of Implantation Spots", "setting": "[2]; 10 μM", "value": 1.55}, {"measurement": "Odds Ratio for comparison to vehicle control, No. of Viable Fetuses", "setting": "[2]; 10 μM", "value": 1.29}, {"measurement": "better chance (odds) of a successful implantation versus vehicle control", "setting": "[2]; 10 μM", "value": 55, "unit": "%"}, {"measurement": "No. of Implantation Spots: Odds", "setting": "[2]; 10 μM", "value": 0.39}, {"measurement": "No. of Viable Fetuses: Odds", "setting": "[2]; 10 μM", "value": 0.10}, {"measurement": "No. of Implantation Spots: Failures", "setting": "[2]; 10 μM", "value": 317}, {"measurement": "No. of Viable Fetuses: Failures", "setting": "[2]; 10 μM", "value": 400}, {"measurement": "Odds Ratio for comparison to FF-MAS, No. of Implantation Spots", "setting": "[2]; 10 μM", "value": 1.30}, {"measurement": "Odds Ratio for comparison to FF-MAS, No. of Viable Fetuses", "setting": "[2]; 10 μM", "value": 0.87}, {"measurement": "shows significant improvement of odds versus vehicle control, number of implantation spots", "setting": "[2]; 95% confidence interval of odds ratio, all doses tested", "value": "significant improvement of odds"}, {"measurement": "implantation rate per transferred 2-cell embryos (FIG. 4)", "setting": "[2]; FF-MAS 10 μM, compound IA 1 μM and 10 μM", "value": "higher numbers"}, {"measurement": "increase of the odds for a success in terms of viable fetuses versus vehicle control", "setting": "[2]; lower doses (1 μM)", "value": 70, "unit": "%"}, {"measurement": "solubility", "setting": "[3]", "value": "~4", "unit": "µg/mL"}]}]}
